Experimental findings from BindingDB's records for doi:10.7270/Q2R49PCF (Burnham Center For Chemical Genomics, 2012) are described below.

Broadly, the IC50 is the midpoint of a concentration-inhibition curve. A high value points to weaker potency.

Where only a bound is given, the exact number is not on record here.

The target of this experiment is T1, Sentrin-specific protease 1 (Homo sapiens, UniProt Q9P0U3).
T1 sequence (Q9P0U3 whole entry): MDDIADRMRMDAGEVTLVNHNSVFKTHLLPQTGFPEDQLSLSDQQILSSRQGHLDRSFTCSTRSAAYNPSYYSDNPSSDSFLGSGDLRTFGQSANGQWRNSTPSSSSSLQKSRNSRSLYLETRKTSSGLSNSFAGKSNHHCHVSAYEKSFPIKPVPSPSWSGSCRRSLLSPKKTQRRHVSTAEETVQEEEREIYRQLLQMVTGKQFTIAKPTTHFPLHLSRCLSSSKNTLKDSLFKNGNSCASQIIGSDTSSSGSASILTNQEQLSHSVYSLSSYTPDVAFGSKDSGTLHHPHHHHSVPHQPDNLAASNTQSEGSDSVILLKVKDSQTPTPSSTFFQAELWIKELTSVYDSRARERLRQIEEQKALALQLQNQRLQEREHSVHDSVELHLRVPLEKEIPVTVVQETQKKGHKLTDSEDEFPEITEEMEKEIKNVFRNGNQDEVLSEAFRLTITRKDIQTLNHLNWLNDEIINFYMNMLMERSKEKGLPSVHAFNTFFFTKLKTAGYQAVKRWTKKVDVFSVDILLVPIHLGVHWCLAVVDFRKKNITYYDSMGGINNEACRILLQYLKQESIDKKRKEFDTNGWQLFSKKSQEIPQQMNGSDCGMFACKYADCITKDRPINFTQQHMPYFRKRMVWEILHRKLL
For `CCOC1=CC(=Cc2sc(=O)[nH]c2N)C=CC1=O`, the midpoint of inhibition, the IC50, lay at 18.2 µM. As to `O=[N+]([O-])c1ccc(C/N=N/c2ccccc2)cc1`, the midpoint of inhibition, the IC50, lay at 7.2 µM. For the compound `COc1ccc(-n2c(O)c3c(c2O)C(C(=O)c2ccc(Cl)cc2)N2CCCC32)cc1` (stereo not drawn), the 50% inhibitory concentration (IC50) was 4.36 µM.

`O=C1CC(=Nc2ccc(Cl)cc2)C(=O)N1c1ccc(Cl)cc1` [1-(4-chlorophenyl)-3-[(4-chlorophenyl)amino]pyrrole-2,5-dione] came in with an IC50 of 12.5 µM.

Compound `CC1(C)CC(=O)C2Sc3ccccc3N=C2C1` (stereo not drawn) [2,2-Dimethyl-2,3-dihydro-1H,10H-phenothiazin-4-one] showed an IC50 of 42.4 µM. Next, `O=C(Cc1cccc2ccccc12)NC(NC(=S)Nc1ccccc1Cl)C(Cl)(Cl)Cl` (stereo not drawn) [2-(1-naphthyl)-N-[2,2,2-trichloro-1-({[(2-chlorophenyl)amino]carbonothioyl}amino)ethyl]acetamide]: 8.71 µM; `COc1ccc(P2(=O)Nc3ccccc3N2)cc1` [2-(4-methoxyphenyl)-1,3-dihydro-1,3,2-benzodiazaphosphole 2-oxide]: > 80 µM.

`N#CC1C(=N)Oc2cc(Nc3ccccc3)ccc2C1c1ccncc1` (stereo not drawn) [2-amino-7-anilino-4-pyridin-4-yl-4H-1-benzopyran-3-carbonitrile]: half-maximal inhibition (IC50) was put at 30.5 µM.

Consider `CCN1C(=O)c2cccc3c(NC(=O)c4cccc(-n5c(O)ccc5O)c4)ccc1c23` [3-(2,5-dioxopyrrolidin-1-yl)-N-(1-ethyl-2-oxobenzo[cd]indol-6-yl)benzamide], for which the IC50 was 11.3 µM. For the compound `COc1ccc(C=Nn2c(O)csc2=S)cc1Br` [3-[(E)-(3-bromo-4-methoxyphenyl)methylideneamino]-2-sulfanylidene-4-thiazolidinone], the IC50 turned out to be 9.69 µM. Regarding `O=C1CC(=O)c2cccc3cccc1c23` [3-hydroxy-1H-phenalen-1-one], 8.55 µM corresponded to half-maximal inhibition (IC50).

On to `Oc1c2c(c(O)n1-c1ccccn1)C(c1ccccc1)C=CC2c1ccccc1` (stereo not drawn) [4,7-diphenyl-2-pyridin-2-yl-3a,4,7,7a-tetrahydroisoindole-1,3-dione], for which 7.9 µM corresponded to half-maximal inhibition (IC50). The IC50 values of the last two compounds are within 1.5-fold of each other. `COc1nccnc1NS(=O)(=O)c1ccc(NC(=S)NC(=O)c2ccc(F)cc2)cc1` [4-[3-(4-Fluoro-benzoyl)-thioureido]-N-(3-methoxy-pyrazin-2-yl)-benzenesulfonamide] gave an IC50 of 15.4 µM. With `O=C(O)c1ccc(N=NCc2cccc3nccnc23)cc1` [4-[(2E)-2-(5-quinoxalinylmethylidene)hydrazinyl]benzoic acid], the half-maximal inhibitory concentration (IC50) turned out to be 8.97 µM. `CC(=O)Oc1ccc(-n2c(O)c3c(c2O)C(C(=O)c2ccc(Cl)cc2)N2CCCC32)cc1` (stereo not drawn) [Acetic acid 4-[4-(4-chloro-benzoyl)-1,3-dioxo-octahydro-pyrrolo[3,4-a]pyrrolizin-2-yl]-phenyl ester] showed an IC50 of 4.65 µM. The compound `O=C1CCCC2=Nc3cc(Cl)ccc3SC12` (stereo not drawn) [MLS000333002] had a concentration for half-maximal inhibition (IC50) of 17.1 µM. To `CN(C)c1ccc(C=NNC(=O)C(=O)CC2=NC3(CCCC3)Cc3ccccc32)cc1` [MLS000589038] belongs 13.2 µM; to `COc1ccc(-n2c(O)c3c(c2O)C(C(=O)c2ccccc2)N2CCCC32)cc1` (stereo not drawn) [MLS000762485], 11 µM. `O=C(c1ccccc1)[C@@H]1c2c(c(O)n(-c3ccc(F)cc3)c2O)C2CCCN21` (stereo partly drawn) [MLS000769629]: it took 7.78 µM to reach half-maximal inhibition (IC50).

In the case of `CCOc1cc(C=c2[nH]c3n(c2=O)CCCCC=3)ccc1O` [MLS000774439], the 50% inhibitory concentration (IC50) was 7.67 µM. Next, `CC1=C(C#N)C(=O)NC(=O)C1=NNc1ccc(Br)cc1C(=O)O` [MLS001213177]: 10.6 µM. Next, `O=NC1c2cc([N+](=O)[O-])ccc2-c2cc(Cl)c(NC(=O)C(F)(F)F)cc21` (stereo not drawn) [MLS002707326]: 2.89 µM; `Nc1ccc2c(c1)C(N=O)c1cc([N+](=O)[O-])ccc1-2` (stereo not drawn) [N-(2-azanyl-7-nitro-fluoren-9-ylidene)hydroxylamine]: 3.12 µM.
